Assay results from PubChem BioAssay (NCI).
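Method: 48-hour compound exposure of cells in 96-well plates, five concentrations, linear interpolation of endpoints. Abbreviation: GI50, concentration required for 50% inhibition of growth. TGI: total growth inhibition.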

Experiments:
Assay in all cases: DTP human tumour cell line panel, 48 h
HS 578T breast = test system: HS 578T breast
NCI-H226 lung = test system: NCI-H226 lung
OVCAR-4 ovarian = test system: OVCAR-4 ovarian
TK-10 renal = test system: TK-10 renal
MALME-3M melanoma = test system: MALME-3M melanoma
SNB-75 CNS = test system: SNB-75 CNS
HCT-15 colon = test system: HCT-15 colon
NCI-H460 lung = test system: NCI-H460 lung
UO-31 renal = test system: UO-31 renal
SF-539 CNS = test system: SF-539 CNS
MOLT-4 leukemia = test system: MOLT-4 leukemia
NCI-H23 lung = test system: NCI-H23 lung
K-562 leukemia = test system: K-562 leukemia
UACC-62 melanoma = test system: UACC-62 melanoma
U251 CNS = test system: U251 CNS
SK-MEL-2 melanoma = test system: SK-MEL-2 melanoma
IGROV1 ovarian = test system: IGROV1 ovarian
SK-MEL-5 melanoma = test system: SK-MEL-5 melanoma
PC-3 prostate = test system: PC-3 prostate
MDA-MB-435 = test system: MDA-MB-435
MCF7 breast = test system: MCF7 breast
OVCAR-3 ovarian = test system: OVCAR-3 ovarian
HOP-92 NSCLC = test system: HOP-92 NSCLC
SN12C renal = test system: SN12C renal
HCT-116 colon = test system: HCT-116 colon
HL-60(TB) leukemia = test system: HL-60(TB) leukemia
SF-295 CNS = test system: SF-295 CNS
A549 NSCLC = test system: A549 NSCLC
RXF 393 renal = test system: RXF 393 renal
HOP-62 NSCLC = test system: HOP-62 NSCLC
KM12 colon = test system: KM12 colon
OVCAR-8 ovarian = test system: OVCAR-8 ovarian
DU-145 prostate = test system: DU-145 prostate
NCI-H522 lung = test system: NCI-H522 lung
CCRF-CEM leukemia = test system: CCRF-CEM leukemia
SK-OV-3 ovarian = test system: SK-OV-3 ovarian
BT-549 breast = test system: BT-549 breast
EKVX NSCLC = test system: EKVX NSCLC
ACHN renal = test system: ACHN renal
MDA-MB-231 breast = test system: MDA-MB-231 breast
SR leukemia = test system: SR leukemia
SNB-19 CNS = test system: SNB-19 CNS
UACC-257 melanoma = test system: UACC-257 melanoma
T-47D breast = test system: T-47D breast
NCI/ADR-RES ovarian = test system: NCI/ADR-RES ovarian
A498 renal = test system: A498 renal
HT29 colon = test system: HT29 colon
SF-268 CNS = test system: SF-268 CNS
SK-MEL-28 melanoma = test system: SK-MEL-28 melanoma
SW-620 colon = test system: SW-620 colon
CAKI-1 renal = test system: CAKI-1 renal
LOX IMVI melanoma = test system: LOX IMVI melanoma
COLO 205 colon = test system: COLO 205 colon
OVCAR-5 ovarian = test system: OVCAR-5 ovarian
RPMI-8226 leukemia = test system: RPMI-8226 leukemia

`Oc1ccccc1/C=N/c1nc(-c2ccccc2)cs1` gave a GI50 (HS 578T breast) of 39 µM, a TGI (HS 578T breast) of over 100 µM and a GI50 (NCI-H226 lung) of 35.1 µM. For the same compound, the TGI (NCI-H226 lung) was over 100 µM, the GI50 (OVCAR-4 ovarian) was 33.7 µM and the TGI (OVCAR-4 ovarian) was over 100 µM. The GI50 (TK-10 renal) was 33 µM, the TGI (TK-10 renal) was over 100 µM and the GI50 (MALME-3M melanoma) was 47.2 µM. For the same compound, the TGI (MALME-3M melanoma) was over 100 µM, the GI50 (SNB-75 CNS) was over 100 µM and the TGI (SNB-75 CNS) was over 100 µM. It also gave a GI50 (HCT-15 colon) of 29.4 µM, a TGI (HCT-15 colon) of over 100 µM and a GI50 (NCI-H460 lung) of over 100 µM. For the same compound, the TGI (NCI-H460 lung) was over 100 µM, the GI50 (UO-31 renal) was 44.7 µM and the TGI (UO-31 renal) was over 100 µM. It also gave a GI50 (SF-539 CNS) of 27.5 µM, a TGI (SF-539 CNS) of 94.3 µM and a GI50 (MOLT-4 leukemia) of 25.4 µM. It also gave a TGI (MOLT-4 leukemia) of 74.7 µM, a GI50 (NCI-H23 lung) of 18.4 µM and a TGI (NCI-H23 lung) of 41.8 µM. It also gave a GI50 (K-562 leukemia) of 19.6 µM, a TGI (K-562 leukemia) of 68 µM and a GI50 (UACC-62 melanoma) of 34.5 µM. The TGI (UACC-62 melanoma) was over 100 µM, the GI50 (U251 CNS) was 28.5 µM and the TGI (U251 CNS) was over 100 µM. For the same compound, the GI50 (SK-MEL-2 melanoma) was over 100 µM, the TGI (SK-MEL-2 melanoma) was over 100 µM and the GI50 (IGROV1 ovarian) was over 100 µM. It also gave a TGI (IGROV1 ovarian) of over 100 µM, a GI50 (SK-MEL-5 melanoma) of 47.6 µM and a TGI (SK-MEL-5 melanoma) of over 100 µM. For the same compound, the GI50 (PC-3 prostate) was 53.7 µM, the TGI (PC-3 prostate) was over 100 µM and the GI50 (MDA-MB-435) was 29.7 µM. For the same compound, the TGI (MDA-MB-435) was over 100 µM, the GI50 (MCF7 breast) was 14.1 µM and the TGI (MCF7 breast) was 40.8 µM. For the same compound, the GI50 (OVCAR-3 ovarian) was 30 µM, the TGI (OVCAR-3 ovarian) was over 100 µM and the GI50 (HOP-92 NSCLC) was 8.22 µM. For the same compound, the TGI (HOP-92 NSCLC) was over 100 µM, the GI50 (SN12C renal) was 30.9 µM and the TGI (SN12C renal) was over 100 µM. The GI50 (HCT-116 colon) was 12.4 µM, the TGI (HCT-116 colon) was 34.4 µM and the GI50 (HL-60(TB) leukemia) was 36 µM. It also gave a TGI (HL-60(TB) leukemia) of over 100 µM, a GI50 (SF-295 CNS) of over 100 µM and a TGI (SF-295 CNS) of over 100 µM. It also gave a GI50 (A549 NSCLC) of over 100 µM, a TGI (A549 NSCLC) of over 100 µM and a GI50 (RXF 393 renal) of 10.4 µM. The TGI (RXF 393 renal) was 32.6 µM, the GI50 (HOP-62 NSCLC) was over 100 µM and the TGI (HOP-62 NSCLC) was over 100 µM. The GI50 (KM12 colon) was 51 µM, the TGI (KM12 colon) was over 100 µM and the GI50 (OVCAR-8 ovarian) was 42.9 µM. It also gave a TGI (OVCAR-8 ovarian) of over 100 µM, a GI50 (DU-145 prostate) of 77.5 µM and a TGI (DU-145 prostate) of over 100 µM. The GI50 (NCI-H522 lung) was 25.4 µM, the TGI (NCI-H522 lung) was 62.6 µM and the GI50 (CCRF-CEM leukemia) was 19.7 µM. For the same compound, the TGI (CCRF-CEM leukemia) was 65 µM, the GI50 (SK-OV-3 ovarian) was over 100 µM and the TGI (SK-OV-3 ovarian) was over 100 µM. For the same compound, the GI50 (BT-549 breast) was 59.5 µM, the TGI (BT-549 breast) was over 100 µM and the GI50 (EKVX NSCLC) was over 100 µM. The TGI (EKVX NSCLC) was over 100 µM, the GI50 (ACHN renal) was 32.2 µM and the TGI (ACHN renal) was over 100 µM. For the same compound, the GI50 (MDA-MB-231 breast) was 20 µM, the TGI (MDA-MB-231 breast) was over 100 µM and the GI50 (SR leukemia) was 24.3 µM. The TGI (SR leukemia) was 79.5 µM, the GI50 (SNB-19 CNS) was over 100 µM and the TGI (SNB-19 CNS) was over 100 µM. The GI50 (UACC-257 melanoma) was 44.3 µM, the TGI (UACC-257 melanoma) was over 100 µM and the GI50 (T-47D breast) was over 100 µM. For the same compound, the TGI (T-47D breast) was over 100 µM, the GI50 (NCI/ADR-RES ovarian) was over 100 µM and the TGI (NCI/ADR-RES ovarian) was over 100 µM. The GI50 (A498 renal) was 77 µM, the TGI (A498 renal) was over 100 µM and the GI50 (HT29 colon) was 58.2 µM. It also gave a TGI (HT29 colon) of over 100 µM, a GI50 (SF-268 CNS) of 81.1 µM and a TGI (SF-268 CNS) of over 100 µM. For the same compound, the GI50 (SK-MEL-28 melanoma) was over 100 µM, the TGI (SK-MEL-28 melanoma) was over 100 µM and the GI50 (SW-620 colon) was 14 µM. For the same compound, the TGI (SW-620 colon) was 40 µM, the GI50 (CAKI-1 renal) was 22.5 µM and the TGI (CAKI-1 renal) was 62.6 µM. It also gave a GI50 (LOX IMVI melanoma) of 17.6 µM, a TGI (LOX IMVI melanoma) of 46.9 µM and a GI50 (COLO 205 colon) of 57.7 µM. For the same compound, the TGI (COLO 205 colon) was over 100 µM, the GI50 (OVCAR-5 ovarian) was 32.2 µM and the TGI (OVCAR-5 ovarian) was over 100 µM. It also gave a GI50 (RPMI-8226 leukemia) of 27.5 µM and a TGI (RPMI-8226 leukemia) of over 100 µM.
